Assay results as given in ChEMBL document CHEMBL1123891, “Antimalarial activity of 2-(substituted amino)-4,6-bis(trichloromethyl)-1,3,5-triazines and N-(chlorophenyl)-N'-[4-(substituted amino)-6-(trichloromethyl)-1,3,5-triazin-2-yl]guanidines” (1987).
“And” between values parts separate entries of the source, which are not always exact repeats. Equal entries are not always repeated.

Legend:
[1] = system: Mus musculus; test: (§1) Mean survival time was determined against Plasmodium berghei treated mice (Mus musculus) after (subcutaneously) administration of 40 mg/kg; assay type: functional; design: unit not given beside the values; settings: route subcutaneous
[2] = system: Mus musculus; test: Mean survival time was determined against Plasmodium berghei treated mice (Mus musculus) after (subcutaneous) administration of 160 mg/kg; assay type: functional; design: unit not given beside the values
[3] = system: Mus musculus; test: as §1; assay type: functional; settings: route subcutaneous
[4] = system: Mus musculus; test: (§2) Mean survival time was determined against Plasmodium berghei treated mice (Mus musculus) after (subcutaneously) administration of 80 mg/kg; assay type: functional; settings: route subcutaneous
[5] = species: Mus musculus; test: Dose required for 90% suppression of the parasitaemia in Plasmodium berghei treated mice (Mus musculus) relative to control was determined; assay type: functional
[6] = system: Mus musculus; test: Mean survival time was determined against Plasmodium berghei treated mice (Mus musculus) after (subcutaneously) administration of 160 mg/kg; assay type: functional; design: unit not given beside the values; settings: route subcutaneous
[7] = system: Gallus gallus; test: Mean survival time was determined against Plasmodium gallinaceum treated chicks after (subcutaneously) administration of 60 mg/kg; assay type: functional; settings: route subcutaneous
[8] = system: Mus musculus; test: (§3) Mean survival time was determined against Plasmodium berghei treated mice (Mus musculus) after (subcutaneously) administration of 320 mg/kg; assay type: functional; design: unit not given beside the values; settings: route subcutaneous
[9] = system: Mus musculus; test: (§4) Mean survival time was determined against Plasmodium berghei treated mice (Mus musculus) after (subcutaneously) administration of 20 mg/kg; assay type: functional; settings: route subcutaneous
[10] = system: Mus musculus; test: as §4; assay type: functional; design: unit not given beside the values; settings: route subcutaneous
[11] = system: Mus musculus; test: as §2; assay type: functional; design: unit not given beside the values; settings: route subcutaneous
[12] = system: Mus musculus; test: Mean survival time was determined against Plasmodium berghei treated mice (Mus musculus) after (subcutaneous) administration of 640 mg/kg; assay type: functional; design: unit not given beside the values
[13] = system: Mus musculus; test: Mean survival time was determined against Plasmodium berghei treated mice (Mus musculus) after (subcutaneous) administration of 320 mg/kg; assay type: functional
[14] = system: Gallus gallus; test: Mean survival time was determined against Plasmodium gallinaceum treated chicks after (subcutaneous) administration of 120 mg/kg; assay type: functional
[15] = system: Gallus gallus; test: Mean survival time was determined against Plasmodium gallinaceum treated chicks after (subcutaneously) administration of 240 mg/kg; assay type: functional; settings: route subcutaneous
[16] = system: Mus musculus; test: Mean survival time was determined against Plasmodium berghei treated mice (Mus musculus) after (subcutaneous) administration of 20 mg/kg
[17] = system: Gallus gallus; test: Mean survival time was determined against Plasmodium gallinaceum treated chicks after (subcutaneously) administration of 120 mg/kg; assay type: functional; settings: route subcutaneous
[18] = system: Gallus gallus; test: Mean survival time was determined against Plasmodium gallinaceum treated chicks after (subcutaneously) administration of 100 mg/kg; assay type: functional; settings: route subcutaneous
[19] = system: Mus musculus; test: Mean survival time was determined against Plasmodium berghei treated mice (Mus musculus) after (subcutaneously) administration of 640 mg/kg; assay type: functional; settings: route subcutaneous
[20] = system: Mus musculus; test: as §3; assay type: functional; settings: route subcutaneous
[21] = system: Gallus gallus; test: Mean survival time was determined against Plasmodium gallinaceum treated chicks after (subcutaneous) administration of 240 mg/kg; assay type: functional

| Structure (SMILES) | Delta MST [1] | Delta MST ([2]; 160 mg/kg) | Delta MST ([3]; 40 mg/kg) | Delta MST [4] | SD90 [5] [mg/kg] | Delta MST [6] | Delta MST [8] | Delta MST [9] | Delta MST [10] | Delta MST [11] | Delta MST [12] | Delta MST [13] | Delta MST ([6]; 160 mg/kg) | Delta MST [15] | also measured |
| --- | --- | --- | --- | --- | --- | --- | --- | --- | --- | --- | --- | --- | --- | --- | --- |
| CN(C)CCCNc1nc(/N=C(\N)Nc2ccc(Cl)cc2)nc(C(Cl)(Cl)Cl)n1 | 4.2 and 4.6 | 5.4 and 6.5 | – | – | – | – | – | – | – | – | – | – | – | – | – |
| ClC(Cl)(Cl)c1nc(NCCCCN2CCCC2)nc(C(Cl)(Cl)Cl)n1 | – | – | 0.2 and 0.3 | 0.4 | 80 | 2.8 | 4.2 | 0.2 | – | – | – | – | – | – | Delta MST [2]: 2.1; Delta MST [7]: 0.1 |
| N=C(Nc1ccc(Cl)cc1)Nc1nc(NCCCCCN2CCCC2)nc(C(Cl)(Cl)Cl)n1 | 1 and 1.2 | 3.8 and 4.2 | – | – | 145 | – | – | – | 0.6 | 2.2 | 7.2 and 7 | 4 | – | – | Delta MST [14]: 0.7 |
| CCN1CCCC(Nc2nc(/N=C(\N)Nc3ccc(Cl)cc3)nc(C(Cl)(Cl)Cl)n2)C1 (configuration not stated) | – | – | 0.7 and 1.1 | 4.1 | 97 | – | 5.3 | 0.3 | – | – | – | – | 4.7 and 2.3 | – | Delta MST ([12]; 640 mg/kg): 10.3 and 9.9 |
| N=C(Nc1ccc(Cl)cc1)Nc1nc(NCCCCN2CCCC2)nc(C(Cl)(Cl)Cl)n1 | 0.4 and 1 | 3.8 and 4.8 | – | – | 108 | – | – | – | 0.2 | 2.2 | 5.8 and 5.3 | 4.8 | – | – | – |
| CCN1CCCC(Nc2nc(C(Cl)(Cl)Cl)nc(C(Cl)(Cl)Cl)n2)C1 (configuration not stated) | – | – | – | – | 91 | 2.8 | – | – | – | – | – | – | – | 1.6 | Delta MST [3]: 0.2 |
| CN(C)CCCNc1nc(C(Cl)(Cl)Cl)nc(C(Cl)(Cl)Cl)n1 | – | – | 2 and 2.1 | 2.2 | 125 | – | 6.8 | – | – | – | – | – | 4 and 4.7 | 0.3 | Delta MST ([12]; 640 mg/kg): 16.3 and 17.7; Delta MST [16]: 1.2 |
| ClC(Cl)(Cl)c1nc(NCCCCCN2CCCC2)nc(C(Cl)(Cl)Cl)n1 | – | – | 0.4 and 0.5 | 0.4 | 34 | 2.3 | 8.6 | 0 | – | – | – | – | – | – | Delta MST [2]: 3; Delta MST [17]: 4.6; Delta MST [7]: 1.2 |
| ClC(Cl)(Cl)c1nc(NCCCN2CCCC2)nc(C(Cl)(Cl)Cl)n1 | – | – | – | 0.2 | 86 | 1 | 1.6 | 0 | – | – | 3.8 | – | – | 0.3 | Delta MST [3]: 0 |
| CN(C)CCCNc1nc(/N=C(\N)Nc2ccc(Cl)c(Cl)c2)nc(C(Cl)(Cl)Cl)n1 | – | – | 1.3 and 1.6 | – | 100 | – | – | – | – | – | – | – | 12.3 and 12.6 | – | Delta MST ([12]; 640 mg/kg): 15.5 and 14.9; Delta MST [18]: 0.2 |
| N=C(Nc1ccc(Cl)cc1)Nc1nc(NCCCN2CCCCC2)nc(C(Cl)(Cl)Cl)n1 | 1.7 and 1.5 | 3.1 and 3.9 | – | – | 208 | – | – | – | 0.3 | 2.7 | 7.9 and 8.1 | 5.5 | – | – | Delta MST [14]: 9.1 |
| N=C(Nc1ccc(Cl)cc1)Nc1nc(NCCCN2CCCC2)nc(C(Cl)(Cl)Cl)n1 | – | – | – | 1.9 | 235 | – | – | 0.5 | – | – | – | – | 3.7 and 2.3 | 14.4 | Delta MST [19]: 10.1 and 9.9; Delta MST [3]: 0.5; Delta MST [17]: 11.7; Delta MST [20]: 7.5 |
| N=C(Nc1ccc(Cl)cc1)Nc1nc(NCCCN2CCCCCC2)nc(C(Cl)(Cl)Cl)n1 | 1.1 and 0.7 | 2.7 and 1.5 | – | – | 240 | – | – | – | 0.7 | 1.7 | 7.5 and 4.7 | 4.5 | – | – | Delta MST [18]: 18.7; Delta MST [21]: 7.2 |
